# Columns and labels:
# [1] = system: HeLa, HT-29 and MCF-7 human tumor cell lines; assay: Antiproliferative activity over the three human tumor cell lines (MTT); assay type: cell-based; conditions: Homo sapiens, range over the cell lines, Table S1; read-out: Cytotoxicity range (range of antiproliferative IC50 values)
# [2] = system: Bovine brain microtubule protein (MTP); assay: Tubulin polymerization inhibition assay (turbidimetry); assay type: biochemical; conditions: 1.5 mg/mL MTP; IC50 calculated only if more than 50% inhibition at 20 µM; read-out: TPI IC50
SMILES,IC50 [1] [nM],IC50 [2] [nM]
"COc1cc(C(=O)c2ccnc(N3CCCC3)c2)cc(OC)c1OC [Compound 1h, (2-(Pyrrolidin-1-yl)pyridin-4-yl)(3,4,5-trimethoxyphenyl)methanone]",17 to 71,9100
"COc1cc(C=Cc2ccc(N(C)C)nc2)cc(OC)c1OC [Compound 8b, N,N-dimethyl-5-(3,4,5-trimethoxystyryl)pyridin-2-amine]",57 to 80,5100
"C=C(c1ccc(N(C)C)nc1)c1cc(OC)c(OC)c(OC)c1 [Compound 3b, N,N-Dimethyl-5-(1-(3,4,5-trimethoxyphenyl)vinyl)pyridin-2-amine]",81 to 277,35900
"COc1cc(C(=O)c2cccc(N(C)C)c2)cc(OC)c1OC [Compound 1f, (3-(Dimethylamino)phenyl)(3,4,5-trimethoxyphenyl)methanone]",180 to 460,> 20000

# Source: publication PMC6930638, “The Masked Polar Group Incorporation (MPGI) Strategy in Drug Design: Effects of Nitrogen Substitutions on Combretastatin and Isocombretastatin Tubulin Inhibitors” (Molecules, 2019)
